ChEMBL document CHEMBL4359910, “From random to rational: A discovery approach to selective subnanomolar inhibitors of human carbonic anhydrase IV based on the Castagnoli-Cushman multicomponent reaction” (Eur J Med Chem, 2019)

Legend:
[1] = tested on: ARPE-19; experiment: Cytotoxicity against human ARPE19 cells at 30 to 300 uM measured after 48 hrs under normoxia condition in presence of CoCl2 by MTT assay relative to control; type: cell-based; details: arpe-19, 48 h
[2] = tested on: T98G; experiment: Cytotoxicity against human T98G cells measured after 48 hrs under normoxia condition in presence of CoCl2 by MTT assay; type: functional, cell-based
[3] = tested on: ARPE-19; experiment: Cytotoxicity against human ARPE19 cells at 300 uM measured after 48 hrs under normoxia condition in presence of CoCl2 by MTT assay; type: cell-based; details: arpe-19, 48 h

Row | Structure (SMILES) | Activity [1] [%] | Activity [2] | Activity [3]
1 | CC(=O)OCCNC(=O)[C@H]1CC(=O)N(c2ccc(S(N)(=O)=O)cc2)[C@@H]1c1ccc(Cl)cc1 | 80 | Dose-dependent effect | –
2 | NS(=O)(=O)c1ccc(N2C(=O)C[C@H](C(=O)NCCCn3ccnc3)[C@H]2c2ccc(Cl)cc2)cc1 (racemic) | 80 | Dose-dependent effect | –
3 | CN1CCN(CCCNC(=O)[C@H]2CC(=O)N(c3ccc(S(N)(=O)=O)cc3)[C@@H]2c2ccc(Cl)cc2)CC1 (racemic) | – | Dose-dependent effect | Toxic
4 | NS(=O)(=O)c1ccc(N2C(=O)C[C@H](C(=O)NCCCN3CCCC3)[C@H]2c2ccc(Cl)cc2)cc1 (racemic) | 80 | Dose-dependent effect | –
5 | NS(=O)(=O)c1ccc(N2C(=O)C[C@H](C(=O)NCCC(=O)O)[C@H]2c2ccc(Cl)cc2)cc1 (racemic) | – | Dose-dependent effect | –
6 | NS(=O)(=O)c1ccc(N2C(=O)C[C@H](C(=O)NCCCO)[C@H]2c2ccc(Cl)cc2)cc1 (racemic) | – | Dose-dependent effect | –
